{"source": "patent US11045542B2", "about": "“Method of reducing reactogenicity induced by administration of vaccine or immunogenic composition” (GLAXOSMITHKLINE BIOLOGICALS, SA, priority 2015, dated 2021)", "type_in_all_cases": "in vivo, Mice", "key": {"[1]": {"system": "CD4+ or CD8+ T cells expressing at least 2 cytokines", "assay": "Effect of MaR1 on specific T cell responses induced by vaccine injection (intracellular cytokine staining of spleen cells)", "settings": "MaR1 5 ng/dose intramuscularly 1 h prior to OVA and HBS antigens in AS01B; vs antigens and adjuvant alone", "protocol": "Mice (n=30/gr) were injected intramuscularly with the same synthetic MaR1 as the one used in Example 2 (5 ng/dose) or PBS as a control. 1 h later, mice were vaccinated with OVA (Ovalbumin) and HBS (Hepatitis B Surface) antigens re-suspended in adjuvant AS01B or in PBS. This vaccination scheme was repeated 15 days later. Spleens were removed 7 days after the second immunization, and immune cells were extracted and stimulated overnight with OVA (A) or HBS (B) peptides. After surface staining with anti-CD4 and anti-CD8 antibodies, cells were labeled intra-cellularly with anti-IL-2, anti-IFN-γ and anti-TNF-α and analyzed by flow cytometry. Results are expressed as percentages of CD4+ or CD8+ T cells expressing at least 2 cytokines among the ones tested. Each point represents an individual value, the bar represents the mean+/−SD (see FIG. 5)."}, "[2]": {"system": "Anti-OVA or anti-HBs antibodies", "assay": "Effect of MaR1 on specific antibody responses induced by vaccine injection (ELISA on sera)", "settings": "MaR1 5 ng/dose intramuscularly 1 h prior to OVA and HBS antigens in AS01B; vs antigens and adjuvant alone", "protocol": "Mice (n=30/gr) were injected intramuscularly with the same synthetic MaR1 as the one used in Example 2 (5 ng/dose), or PBS as a control. 1 h later, mice were vaccinated with OVA and HBS antigens re-suspended in adjuvant AS01B or in PBS. This vaccination scheme was repeated 15 days later. Sera were taken 7 days after the second immunization. Anti-OVA (A) or anti-HBs (B) antibodies were detected by ELISA. Antibody titers are expressed in ng/mL. Each point represents an individual value; the bar represents the mean+/−SD. (See FIG. 6)."}, "[3]": {"system": "local immune cells at the injection site (muscle)", "assay": "Effect of MaR1 on the local immune cells profile induced by adjuvant injection (flow cytometry of muscle cells)", "settings": "MaR1 5 ng/dose intramuscularly 1 h prior to AS01B", "protocol": "Mice (n=6/gr) were injected intramuscularly with synthetic 7-Maresin-1 (MaR1) (5 ng/dose) or PBS as a control. 1 h later, mice received intramuscularly adjuvant AS01B or PBS. Muscles were collected at 4 h and 24 h following 7-Maresin-1/PBS administration and local immune cells were extracted. The cells were stained with the following antibodies: Lytic, SiglecF, CD90.2, Ly6G, CD11b, CD11c, HLA DR, CD45 and CD19 and analysed by flow cytometry. The cell recruitment is expressed in number of cells per muscle. The plotted area represents the mean obtained for a specific subpopulation. A 2-way ANOVA was performed to compare the different groups. *: p<0.05. The chemical structure of the synthetic MaR1 used in the present experiment is identical to the chemical structure of MaR1 disclosed in Buckley et al. (“Proresolving Lipid Mediators and Mechanisms in the Resolution of Acute Inflammation”, 2014, Immunity 40: 315-327)."}, "[4]": {"system": "cytokines (TNFα, IL-6, IL1b and INFγ) and chemokine (G-CSF, MCP-1, KC and MIP-1a) levels in muscle", "assay": "Effect of MaR1 on the local cytokine profile induced by adjuvant injection (CBA on muscle homogenates)", "settings": "MaR1 5 ng/dose intramuscularly 1 h prior to AS01B; 4 h post-injection of the MaR1", "protocol": "Mice (n=6/gr) were injected intramuscularly with the same synthetic MaR1 as the one used in Example 2 (5 ng/dose), or PBS as a control. 1 h later, mice received intramuscularly adjuvant AS01B or PBS. Muscles were collected at 4 h and 24 h following MaR1/PBS administration and frozen at −70° C. Muscles were thawed and homogenized and cytokines (TNFα, IL-6, IL1b and INFγ) and chemokine (G-CSF, MCP-1, KC and MIP-1a) levels in the cleared homogenates were measured by CBA (Becton Dickinson). The cytokine/chemokine concentrations are expressed in pg/mL. The plotted area represents the mean obtained for a specific cytokine/chemokine. A 2-way ANOVA was performed to compare the different groups. *: p<0.05 (See FIG. 4)."}, "[5]": {"system": "cytokines (TNFα, IL-6, IL1b and IFNγ) and chemokine (G-CSF, MCP-1, KC and MIP-1a) levels in muscle", "assay": "Effect of RvE1 on the local cytokine profile induced by adjuvants injection (CBA on muscle homogenates)", "protocol": "Mice (n=6/gr) were injected intramuscularly with PBS, adjuvant AS03 or adjuvant AS01B. 1 h and 6 h later, the same synthetic RvE1 as the one used in Example 1 (0.2 μg/dose), or PBS was administered also intramuscularly. Muscles were collected at 4 h (A) and 24 h (B) following adjuvant or PBS administration and frozen at −70° C. Muscles were thawed and homogenized and cytokines (TNFα, IL-6, IL1b and IFNγ) and chemokine (G-CSF, MCP-1, KC and MIP-1a) levels in the cleared homogenates were measured by CBA (Becton Dickinson). The cytokine/chemokine concentrations are expressed in pg/mL. The plotted area represents the mean obtained for a specific cytokine/chemokine. A 2-way ANOVA was performed to compare the different groups. *: p<0.05 (See FIG. 3)."}, "[6]": {"system": "local immune cells at the injection site (muscle)", "assay": "Effect of RvE1 on the local immune cells profile induced by adjuvants injection (flow cytometry of muscle cells)", "settings": "muscles at 24 h", "protocol": "Mice (n=6/gr) were injected intramuscularly with PBS, AS03 adjuvant (oil-in-water emulsion) or AS01B adjuvant (MPL+QS21 in liposomes). 1 h and 6 h later, synthetic RvE1 (0.2 μg/dose) or PBS was administered also intramuscularly. Muscles were collected at 24 h following adjuvant/PBS administration and local immune cells were extracted. The cells were stained with the following antibodies: Lytic, SiglecF, CD90.2, Ly6G, CD11b, CD11c, HLA DR, CD45 and CD19 and analysed by flow cytometry. The cell recruitment is expressed in number of cells per muscle. The plotted area represents the mean obtained for a specific subpopulation. A 2-way ANOVA was performed to compare the different groups. *: p<0.05. The chemical structure of the synthetic RvE1 used in the present experiment is identical to the chemical structure of RvE1 disclosed in Buckley et al. (“Proresolving Lipid Mediators and Mechanisms in the Resolution of Acute Inflammation”, 2014, Immunity 40: 315-327)."}}}
{"smiles": "CC/C=C\\C/C=C\\C[C@H](O)\\C=C/C=C/C=C/[C@H](O)C/C=C\\CCC(=O)O", "note": "[MaR1, 7-Maresin-1]", "values": [{"measurement": "CD4+ T cell response induced by adjuvanted vaccine", "setting": "[1]", "value": "did not negatively impact the T cell immune response"}, {"measurement": "CD8+ T cell response induced by adjuvanted vaccine", "setting": "[1]", "value": "did not negatively impact the T cell immune response"}, {"measurement": "anti-HBS antibody response induced by adjuvanted vaccine", "setting": "[2]", "value": "did not negatively impact the antibody immune response"}, {"measurement": "anti-OVA antibody response induced by adjuvanted vaccine", "setting": "[2]", "value": "did not negatively impact the antibody immune response"}, {"measurement": "pattern of immune cells at the injection site", "setting": "[3]; 4 h post-injection", "value": "may be too early to detect an effect"}, {"measurement": "pattern of immune cells at the injection site", "setting": "[3]; 24 h post-injection", "value": "increase of B cells and T cells recruitment on site"}, {"measurement": "modulation of local cytokines/chemokines profile", "setting": "[4]", "value": "significant transient modulating effect"}]}
{"smiles": "CC[C@@H](O)/C=C/C=C\\C[C@@H](O)/C=C/C=C/C=C\\[C@@H](O)CCCC(=O)O", "note": "[RvE1, Resolvin E1]", "values": [{"measurement": "modulation of local cytokines/chemokines concentration", "setting": "[5]; RvE1 0.2 μg/dose intramuscularly after AS01B, 4 h post-injection of the adjuvant", "value": "no significant modulating effect was observed"}, {"measurement": "modulation of local cytokines/chemokines concentration", "setting": "[5]; RvE1 0.2 μg/dose intramuscularly after AS01B, 24 h post-injection of the adjuvant", "value": "no significant modulating effect was observed"}, {"measurement": "modulation of local cytokines/chemokines concentration", "setting": "[5]; RvE1 0.2 μg/dose intramuscularly after AS03, 4 h post-injection of the adjuvant", "value": "a significant modulating effect was observed"}, {"measurement": "modulation of local cytokines/chemokines concentration", "setting": "[5]; RvE1 0.2 μg/dose intramuscularly after AS03, 24 h post-injection of the adjuvant", "value": "no significant effect was observed"}, {"measurement": "recruitment of immune cells at the injection site (number of cells per muscle)", "setting": "[6]; RvE1 0.2 μg/dose intramuscularly 1 h and 6 h after AS01B, vs AS01B alone", "value": "The same conclusion holds true"}, {"measurement": "recruitment of immune cells at the injection site (number of cells per muscle)", "setting": "[6]; RvE1 0.2 μg/dose intramuscularly 1 h and 6 h after AS03, vs AS03 alone", "value": "significantly reduced recruitment of all the immune cell types tested"}, {"measurement": "pattern of immune cells at the injection site", "setting": "[6]; RvE1 on its own with PBS alone, compared with PBS alone", "value": "only a minimal effect on the pattern of immune cells"}]}
